For 19 compounds, IC50 results are on record in US20240018154A1, “NEW INDAZOLE DERIVATIVES” (Hoffmann-La Roche Inc., priority 2020, published 2024).

Each structure is given as a SMILES string.

For the assay, the target named is T1, EGFR LRCS (BaF3-LRCS cell line) (Homo sapiens, UniProt P00533, C797S/L858R).
T1 construct: host or cells: BaF3 (BaF3-LRCS engineered line, kept under puromycin)
T1 sequence (P00533 25-1210 C797S/L858R): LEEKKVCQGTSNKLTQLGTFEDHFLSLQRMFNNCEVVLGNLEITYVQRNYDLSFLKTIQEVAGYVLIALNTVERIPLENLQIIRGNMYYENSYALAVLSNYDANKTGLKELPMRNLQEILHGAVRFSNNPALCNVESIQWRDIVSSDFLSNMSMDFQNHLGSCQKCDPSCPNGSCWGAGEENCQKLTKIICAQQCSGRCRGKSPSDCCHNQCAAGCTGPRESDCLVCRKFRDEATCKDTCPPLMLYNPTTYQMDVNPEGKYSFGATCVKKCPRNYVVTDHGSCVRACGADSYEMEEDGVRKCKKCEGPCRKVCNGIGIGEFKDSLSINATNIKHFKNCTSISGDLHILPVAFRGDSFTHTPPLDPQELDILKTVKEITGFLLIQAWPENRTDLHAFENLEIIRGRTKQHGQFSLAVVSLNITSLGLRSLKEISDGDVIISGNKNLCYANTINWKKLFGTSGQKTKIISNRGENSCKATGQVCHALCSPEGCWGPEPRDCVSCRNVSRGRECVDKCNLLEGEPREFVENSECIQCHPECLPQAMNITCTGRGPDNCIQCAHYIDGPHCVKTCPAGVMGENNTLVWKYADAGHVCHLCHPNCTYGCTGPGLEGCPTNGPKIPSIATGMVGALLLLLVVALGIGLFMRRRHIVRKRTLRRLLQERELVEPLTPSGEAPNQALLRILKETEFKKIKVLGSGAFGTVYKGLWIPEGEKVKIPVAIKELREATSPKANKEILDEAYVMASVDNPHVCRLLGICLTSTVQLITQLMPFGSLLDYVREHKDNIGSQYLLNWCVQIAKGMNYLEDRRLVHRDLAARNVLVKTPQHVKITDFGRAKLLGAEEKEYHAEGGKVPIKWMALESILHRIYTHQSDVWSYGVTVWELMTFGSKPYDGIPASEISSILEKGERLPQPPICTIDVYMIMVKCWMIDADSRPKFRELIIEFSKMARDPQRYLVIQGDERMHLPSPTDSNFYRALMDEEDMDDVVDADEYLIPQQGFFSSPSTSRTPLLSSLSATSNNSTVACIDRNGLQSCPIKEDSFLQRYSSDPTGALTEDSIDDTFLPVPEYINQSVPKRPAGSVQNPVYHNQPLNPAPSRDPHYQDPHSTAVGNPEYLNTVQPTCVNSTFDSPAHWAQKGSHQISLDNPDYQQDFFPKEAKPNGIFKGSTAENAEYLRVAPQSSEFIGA
Description: HTRF Phospho EGFR LRCS assay (cellular). The class given is cell-based. Particulars: BaF3-LRCS cells, 4 hours incubation with compound, Phospho-EGFR HTRF readout. How it is done: HTRF Phospho EGFR LRCS Assay (Cellular)
BaF3-LRCS cell line were obtained from Crownbio (San Diego, CA, USA). Cells were maintained at 37° C., 5% CO2 in RPMI ATCC (Gibco 31870)+2 mM Glutamine+0.5 μg/ml Puromycin supplemented with 10% fetal bovine serum (FBS) (Gibco).
Cells are transferred as above to Greiner Bio-One, Nr. 784-08 micro-titerplate at 20000 cells/well in 12.5 μl of growth medium/well after the plates had been pre-filled with 12.5 nl of DMSO solutions of the to be tested compounds (in dose response) or DMSO only. After spinning the plates at 300×g for 30 seconds the cells were incubated for 4 hours at 37 C, 5% CO2, 95% humidity. The cells were lysed by adding to the compound mix 4 μl/well of the supplemented lysis buffer (Cis-bio, Phospho-EGFR HTRF kit, 64EG1PEH), followed by incubation for 30 min at room temperature with shaking (400 rpm). The plates were then frozen and stored overnight at −80° C. On the next day and after thawing the plates, 4 μl of a mixture of anti-Phospho-EGFR Cryptate and of anti-Phospho-EGFR-d2 antibody solutions prepared in the supplied detection buffer was added to each well. The lidded plates were then incubated for 4 h at room temperature before reading the fluorescence emission at 616 and 665 nm using an Envision reader (Perkin Elmer). Data was analyzed in similar fashion as above using the normalized ratio of the 665 to 616 signals multiplied by 10000.
As to `CCN1CC[C@@H](c2ccc(-c3cc(C(F)F)c4cn(C(C(=O)Nc5nccs5)c5ncn6c5C[C@@H](F)C6)nc4c3C)cc2)[C@H](F)C1` (single isomer, unassigned) [Example 2, 2-[4-(Difluoromethyl)-6-[4-[(3S,4S)-1-ethyl-3-fluoro-4-piperidyl]phenyl]-7-methyl-indazol-2-yl]-2-[(6R)-6-fluoro-6,7-dihydro-5H-pyrrolo[1,2-c]imidazol-1-yl]-N-thiazol-2-yl-acetamide or 2-[4-(Difluoromethyl)-6-[4-[(3R,4R)-1-ethyl-3-fluoro-4-piperidyl]phenyl]-7-methyl-indazol-2-yl]-2-[(6R)-6-fluoro-6,7-dihydro-5H-pyrrolo[1,2-c]imidazol-1-yl]-N-thiazol-2-yl-acetamide], the IC50 turned out to be 15 nM.
To `Cc1c(-c2ccc(CCN3CCC(C(C)O)CC3)cc2)cc(C(F)F)c2cn(C(C(=O)Nc3nccs3)c3ncn4c3C[C@@H](F)C4)nc12` (stereo partly drawn) [Example 14, 2-[4-(Difluoromethyl)-6-[4-[2-[4-(1-hydroxyethyl)-1-piperidyl]ethyl]phenyl]-7-methyl-indazol-2-yl]-2-[(6R)-6-fluoro-6,7-dihydro-5H-pyrrolo[1,2-c]imidazol-1-yl]-N-thiazol-2-yl-acetamide] belongs 16 nM.
To `Cc1c(-c2ccc(N3CCOCC3)nc2)cc(C(F)F)c2cn(C(C(=O)Nc3nccs3)c3ncn4c3C[C@@H](F)C4)nc12` (stereo partly drawn) [Example 21, 2-[4-(Difluoromethyl)-7-methyl-6-(6-morpholino-3-pyridyl)indazol-2-yl]-2-[(6R)-6-fluoro-6,7-dihydro-5H-pyrrolo[1,2-c]imidazol-1-yl]-N-thiazol-2-yl-acetamide] belongs 12 nM; to `Cc1c(-c2ccc(N3CCN(CCO)CC3)cc2)cc(C(F)F)c2cn(C(C(=O)Nc3nccs3)c3ncn4c3C[C@@H](F)C4)nc12` (stereo partly drawn) [Example 20, 2-[4-(Difluoromethyl)-6-[4-[4-(2-hydroxyethyl)piperazin-1-yl]phenyl]-7-methyl-indazol-2-yl]-2-[(6R)-6-fluoro-6,7-dihydro-5H-pyrrolo[1,2-c]imidazol-1-yl]-N-thiazol-2-yl-acetamide], 12 nM.
With `Cc1c(-c2ccc(CCN3CCC(CO)CC3)cc2)cc(C(F)F)c2cn(C(C(=O)Nc3nccs3)c3ncn4c3C[C@@H](F)C4)nc12` (stereo partly drawn) [Example 9, 2-[4-(Difluoromethyl)-6-[4-[2-[4-(hydroxymethyl)-1-piperidyl]ethyl]phenyl]-7-methyl-indazol-2-yl]-2-[(6R)-6-fluoro-6,7-dihydro-5H-pyrrolo[1,2-c]imidazol-1-yl]-N-thiazol-2-yl-acetamide], the IC50 stood at 27 nM.
Take `Cc1c(-c2ccc(N3C[C@H]4CN(CC(C)F)C[C@H]4C3)cc2)cc(C(F)F)c2cn(C(C(=O)Nc3nccs3)c3ncn4c3C[C@@H](F)C4)nc12` (stereo partly drawn) [Example 29, 2-[6-[4-[(3aR,6aS)-2-(2-Fluoropropyl)-1,3,3a,4,6,6a-hexahydropyrrolo[3,4-c]pyrrol-5-yl]phenyl]-4-(difluoromethyl)-7-methyl-indazol-2-yl]-2-[(6R)-6-fluoro-6,7-dihydro-5H-pyrrolo[1,2-c]imidazol-1-yl]-N-thiazol-2-yl-acetamide]: the IC50 turned out to be 28 nM.
For the compound `Cc1c(-c2ccc(N3CCC(O)CC3)cc2)cc(C(F)F)c2cn(C(C(=O)Nc3nccs3)c3ncn4c3C[C@@H](F)C4)nc12` (stereo partly drawn) [Example 11, 2-[4-(Difluoromethyl)-6-[4-(4-hydroxy-1-piperidyl)phenyl]-7-methyl-indazol-2-yl]-2-[(6R)-6-fluoro-6,7-dihydro-5H-pyrrolo[1,2-c]imidazol-1-yl]-N-thiazol-2-yl-acetamide], the IC50 worked out at 10 nM.
As for `Cc1c(-c2ccc(C3CCN(CC(C)F)CC3)cc2)cc(C(F)F)c2cn(C(C(=O)Nc3nccs3)c3ncn4c3C[C@@H](F)C4)nc12` (stereo partly drawn) [Example 23, 2-[4-(Difluoromethyl)-6-[4-[1-(2-fluoropropyl)-4-piperidyl]phenyl]-7-methyl-indazol-2-yl]-2-[(6R)-6-fluoro-6,7-dihydro-5H-pyrrolo[1,2-c]imidazol-1-yl]-N-thiazol-2-yl-acetamide], the IC50 is 21 nM.
`Cc1c(-c2ccc(N3CCOC(CN(C)C)C3)cc2)cc(C(F)F)c2cn(C(C(=O)Nc3nccs3)c3ncn4c3C[C@@H](F)C4)nc12` (stereo partly drawn) [Example 26, 2-[4-(Difluoromethyl)-6-[4-[2-[(dimethylamino)methyl]morpholin-4-yl]phenyl]-7-methyl-indazol-2-yl]-2-[(6R)-6-fluoro-6,7-dihydro-5H-pyrrolo[1,2-c]imidazol-1-yl]-N-thiazol-2-yl-acetamide]: the IC50 turned out to be 78 nM.
To `Cc1c(-c2ccc(N3CC(CN4CCC(CO)CC4)C3)cc2)cc(C(F)F)c2cn(C(C(=O)Nc3nccs3)c3ncn4c3C[C@@H](F)C4)nc12` (stereo partly drawn) [Example 19, 2-(4-(Difluoromethyl)-6-(4-(3-((4-(hydroxymethyl)piperidin-1-yl)methyl)azetidin-1-yl)phenyl)-7-methyl-211-indazol-2-yl)-2-((R)-6-fluoro-6,7-dihydro-5H-pyrrolo[1,2-c]imidazol-1-yl)-N-(thiazol-2-yl)acetamide] belongs 16 nM.
To `Cc1c(-c2ccc(CCN(C)C)cc2)cc(C(F)F)c2cn(C(C(=O)Nc3nccs3)c3ncn4c3C[C@@H](F)C4)nc12` (stereo partly drawn) [Example 4, 2-[4-(Difluoromethyl)-6-[4-[2-(dimethylamino)ethyl]phenyl]-7-methyl-indazol-2-yl]-2-[(6R)-6-fluoro-6,7-dihydro-5H-pyrrolo[1,2-c]imidazol-1-yl]-N-thiazol-2-yl-acetamide] belongs 11 nM; to `Cc1c(-c2ccc(C3CC(CN4CCC(CO)CC4)C3)cc2)cc(C(F)F)c2cn(C(C(=O)Nc3nccs3)c3ncn4c3C[C@@H](F)C4)nc12` (stereo partly drawn) [Example 15, 2-[4-(Difluoromethyl)-6-[4-[3-[[4-(hydroxymethyl)-1-piperidyl]methyl]cyclobutyl]phenyl]-7-methyl-indazol-2-yl]-2-[(6R)-6-fluoro-6,7-dihydro-5H-pyrrolo[1,2-c]imidazol-1-yl]-N-thiazol-2-yl-acetamide], 24 nM.
To `Cc1c(-c2ccc(N3CCOCC3)cc2)cc(C(F)F)c2cn(C(C(=O)Nc3nccs3)c3ncn4c3C[C@@H](F)C4)nc12` (stereo partly drawn) [Example 1, 2-[4-(Difluoromethyl)-7-methyl-6-(4-morpholinophenyl)indazol-2-yl]-2-[(6R)-6-fluoro-6,7-dihydro-5H-pyrrolo[1,2-c]imidazol-1-yl]-N-thiazol-2-yl-acetamide] belongs 8 nM.
Turning to `Cc1c(-c2ccc(N3CCOCC3)cc2)cc(C(F)F)c2cn(C(C(=O)Nc3nccs3)c3ncn4c3CCC4)nc12` (stereo not shown) [Example 8, 2-[4-(Difluoromethyl)-7-methyl-6-(4-morpholinophenyl)indazol-2-yl]-2-(6,7-dihydro-5H-pyrrolo[1,2-c]imidazol-1-yl)-N-thiazol-2-yl-acetamide], the IC50 was found to be 17 nM.
To `Cc1c(-c2ccc(CN3CCC(O)CC3)cc2)cc(C(F)F)c2cn(C(C(=O)Nc3nccs3)c3ncn4c3C[C@@H](F)C4)nc12` (stereo partly drawn) [Example 7, 2-[4-(Difluoromethyl)-6-[4-[(4-hydroxy-1-piperidyl)methyl]phenyl]-7-methyl-indazol-2-yl]-2-[(6R)-6-fluoro-6,7-dihydro-5H-pyrrolo[1,2-c]imidazol-1-yl]-N-thiazol-2-yl-acetamide] belongs 14 nM; to `Cc1c(-c2ccc(CN3CCC(C(C)O)CC3)cc2)cc(C(F)F)c2cn(C(C(=O)Nc3nccs3)c3ncn4c3C[C@@H](F)C4)nc12` (stereo partly drawn) [Example 12, 2-[4-(Difluoromethyl)-6-[4-[[4-(1-hydroxyethyl)-1-piperidyl]methyl]phenyl]-7-methyl-indazol-2-yl]-2-[(6R)-6-fluoro-6,7-dihydro-5H-pyrrolo[1,2-c]imidazol-1-yl]-N-thiazol-2-yl-acetamide], 18 nM.
To `CCN1C[C@H]2CN(c3ccc(-c4cc(C(F)F)c5cn(C(C(=O)Nc6nccs6)c6ncn7c6C[C@@H](F)C7)nc5c4C)cc3)C[C@]2(F)C1` (stereo partly drawn) [Example 25, 2-[6-[4-[(3aR,6aS)-2-Ethyl-3a-fluoro-3,4,6,6a-tetrahydro-1H-pyrrolo[3,4-c]pyrrol-5-yl]phenyl]-4-(difluoromethyl)-7-methyl-indazol-2-yl]-2-[(6R)-6-fluoro-6,7-dihydro-5H-pyrrolo[1,2-c]imidazol-1-yl]-N-thiazol-2-yl-acetamide] belongs 29 nM.
To `Cc1c(-c2ccc(OCCN3CCC(C(C)O)CC3)cc2)cc(C(F)F)c2cn(C(C(=O)Nc3nccs3)c3ncn4c3C[C@@H](F)C4)nc12` (stereo partly drawn) [Example 22, 2-[4-(Difluoromethyl)-6-[4-[2-[4-(1-hydroxyethyl)-1-piperidyl]ethoxy]phenyl]-7-methyl-indazol-2-yl]-2-[(6R)-6-fluoro-6,7-dihydro-5H-pyrrolo[1,2-c]imidazol-1-yl]-N-thiazol-2-yl-acetamide] belongs 30 nM; to `Cc1c(-c2ccc(CN3CCC(CO)CC3)cc2)cc(C(F)F)c2cn(C(C(=O)Nc3nccs3)c3ncn4c3C[C@@H](F)C4)nc12` (stereo partly drawn) [Example 6, 2-[4-(Difluoromethyl)-6-[4-[[4-(hydroxymethyl)-1-piperidyl]methyl]phenyl]-7-methyl-indazol-2-yl]-2-[(6R)-6-fluoro-6,7-dihydro-5H-pyrrolo[1,2-c]imidazol-1-yl]-N-thiazol-2-yl-acetamide], 16 nM.
